“Also recorded” adds a separate entry of the source.
How the values were obtained:
[1] = Permeation through human abdominal skin in a flow-through cell; type: in vitro ADME; conditions: for average dose released by human abdominal skin after 24 hours: mean of 3 independent experiments, 5% suspension in aqueous 0.05% polysorbate 80 solution, dissected skin approx. 300 μm, approx. 19.7 mm^2, 34° C., receptor fluid pH 7.35; for skin penetration compared with CMA (times lower) / skin permeability / skin penetration compared with CMA (in words): relative to CMA
Excerpt: Determination of Permeation of Chlormadinone Acetate (CMA) and 3β-Hydroxychlormadinone Acetate Through Human Abdominal Skin
Fragments of human abdominal skin arising during stomach reduction operations were placed in a Petri dish with dissection solution (Na^+: 144 mmol/l, K^+: 5.9 mmol/l, Ca^2+: 3.7 mmol/l, Cl,^−: 157 mmol/l). The skin fragments were reduced in thickness from the corium side, in several steps, down to a layer thickness of approx. 300 μm, while being kept moist with the dissection solution. Mechanically stable dissected skin was thus obtained, consisting of epidermis with approx. 150-200 μm of cutis. The layer thickness of the dissected skin fragments was determined by measuring with an external screw-type micrometer made by MITUTOYO. The area of the dissected skin fragments used amounted to approx. 19.7 mm^2.
Permeation of CMA respectively 3β-hydroxychlormadinone acetate through human abdominal skin was determined in a flow-through cell, which is illustrated schematically in FIG. 1. A receptor fluid (1) was here pumped past the underside of the dissected skin (2) with a peristaltic pump at a rate of 270 μl per hour. The dissected skin was clamped between the upper part (3) and the lower part (4) of the permeability cell (5). From above, vehicle with 3β-hydroxychlormadinone acetate (5% suspension in aqueous 0.05% polysorbate 80 solution) or chlormadinone acetate (5% suspension in aqueous 0.05% polysorbate 80 solution) was applied in each case to the skin, which then diffused through the dissected skin (2) into the receptor fluid (1). The dissected skin was moistened by a stationary donor fluid (9), which is situated in a reservoir (7). The internal diameter of the receptor fluid feed line (6) was 0.6 mm, and the receptor fluid volume below the skin amounted to approx. 80 μl. The receptor fluid (1) was analysed at fixed intervals by means of a fraction collector (8) and then by HPLC. These experiments allowed a quantitative statement to be made about the amount of substance diffused as a function of time.
An aqueous, isotonic tris buffer (20 mmol/l) with 20% ethanol was used as the receptor fluid and adjusted with NaCl to 310 mosmol (0.9 wt. %). The pH value of the receptor fluid was 7.35. A hole punch was used to punch a piece corresponding to the area of the dissected skin out of a plaster containing the active ingredient to be investigated, said piece being stuck to the dissected skin. […] The experiments were carried out at a test temperature of 34° C. In each case 3 independent series of measurements were made with CMA respectively 3β-hydroxychlormadinone acetate.

[2] = Antiandrogenic efficacy compared with CMA; conditions: no method described

Structure (SMILES) | average dose released by human abdominal skin after 24 hours [1] | skin penetration compared with CMA (times lower) [1] | skin permeability / skin penetration compared with CMA (in words) [1] | antiandrogenic efficacy relative to CMA (ratio) [2]
CC(=O)O[C@]1(C(C)=O)CC[C@H]2[C@@H]3C=C(Cl)C4=C[C@@H](O)CC[C@]4(C)[C@H]3CC[C@@]21C [3β-hydroxychlormadinone acetate, 17α-acetoxychloropregna-4,6-dien-3β-ol-20-one] | 0.7 µg | 6 times | far lesser degree of skin penetration compared with CMA; also recorded: far less than that of CMA | 0.7 times
CC(=O)O[C@]1(C(C)=O)CC[C@H]2[C@@H]3C=C(Cl)C4=CC(=O)CC[C@]4(C)[C@H]3CC[C@@]21C [CMA, chlormadinone acetate] | 4.4 µg |  |  | 
CC(=O)O[C@]1(C(C)=O)CC[C@H]2[C@@H]3C=C(Cl)C4=C[C@H](O)CC[C@]4(C)[C@H]3CC[C@@]21C [3α-hydroxychlormadinone acetate, 17α-acetoxychloropregna-4,6-dien-3α-ol-20-one] |  | 6 times | far lesser degree of skin penetration compared with CMA | 0.7 times

Reference: US8465763B2, “3-hydroxychlormadinone acetate for the topical treatment of androgen-dependent skin diseases” (Richter Gedeon Nyrt., priority 2006, dated 2013)
